According to US20060063736A1, “Compositions and methods for inhibiting mucin-type O-linked glycosylation” (priority 2004, published 2006):
Where “and” joins values, the source holds several entries; their conditions need not be identical. Identical values can stand only once. No end group written: not given here.

Columns and labels:
mppGalNAcT-1 = molecular target: T1, mppGalNAcT-1 (Mus musculus, UniProt O08912); assay: ELLA for ppGalNAcTs, mppGalNAcT-1; format: biochemical, murine; settings: mppGalNAcT-1, ELLA validation
T1 construct: plasmids encoding truncated secreted ppGalNAcTs-1 to −5, -7, -10 and -11; made in house; host or cells: COS-7
T1 sequence (O08912 29-559 limits assumed): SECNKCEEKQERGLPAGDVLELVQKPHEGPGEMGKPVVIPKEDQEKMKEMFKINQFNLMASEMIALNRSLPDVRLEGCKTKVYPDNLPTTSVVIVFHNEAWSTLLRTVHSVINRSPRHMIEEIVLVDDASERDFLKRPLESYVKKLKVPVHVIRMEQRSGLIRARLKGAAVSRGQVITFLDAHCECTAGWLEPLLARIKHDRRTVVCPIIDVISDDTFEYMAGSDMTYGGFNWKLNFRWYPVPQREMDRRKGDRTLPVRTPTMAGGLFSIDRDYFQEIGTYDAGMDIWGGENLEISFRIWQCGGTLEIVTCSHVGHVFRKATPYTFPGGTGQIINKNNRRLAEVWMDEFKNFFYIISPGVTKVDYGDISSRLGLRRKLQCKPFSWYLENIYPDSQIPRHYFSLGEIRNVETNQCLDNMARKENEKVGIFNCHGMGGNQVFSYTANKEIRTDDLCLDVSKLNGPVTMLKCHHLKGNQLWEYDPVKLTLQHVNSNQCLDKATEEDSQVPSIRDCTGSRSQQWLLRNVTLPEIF
Protocol: COS-7 cells were transiently transfected with plasmids encoding truncated secreted ppGalNAcTs-1 to −5, -7, -10 and -11 as previously described. Hagen et al. (1997) J. Biol. Chem. 272:13843-13848. The crude conditioned medium was used as the enzyme source.
Standard reaction conditions for ppGalNAcT assays were as follows. The reaction mixture contained the following components in a final volume of 25 μL: 10 mM MnCl2, 40 mM sodium cacodylate, 40 mM β-mercaptoethanol, 0.1% Triton X-100, pH 6.5, 5 μL of conditioned media, and various concentrations of EA2 peptide 4, UDP-GalNAc and inhibitor. All uridine-based compounds were dissolved in dimethyl sulfoxide (DMSO). The concentration of DMSO in the reaction mixture was limited to 2% (v/v), as higher concentrations decreased ppGalNAcT activity. For inhibitor assays, reaction mixtures for positive controls also contained 2% DMSO. Unless otherwise stated, inhibitor assays were performed using 20 μM UDP-GalNAc and 50 μM EA2 peptide 4, the KM values for both substrates. Reactions were incubated at 37° C. and were terminated by the addition of 10 μL of 0.1 M EDTA. All experiments were performed in duplicate. Reaction rates were linear over the period monitored (20-30 min).
96-Well NeutrAvidin-coated plates were prewashed 3 times with 200 μL of wash buffer (25 mM Tris, 150 mM NaCl, 0.1% bovine serum albumin (BSA) (w/v), and 0.05% Tween (v/v), pH 7.2). Reactions were then transferred to the 96-well plates, incubated for 1 hour at room temperature (rt) and subsequently washed 3 times with 200 μL of phosphate-buffered saline (PBS) containing 0.5% BSA and 0.05% Tween, pH 7.1. A 100-μL solution of HPA-HRP in standard PBS buffer (1 μg/mL, pH 7.4) was added and the reaction was incubated for 1 h at rt. After 3 washes with 200 μL of PBS, bound HPA-HRP was quantified by the addition of 100 μL of TMB peroxide solution. The solutions were incubated for 5-15 min in the dark at rt. HRP activity was terminated by the addition of 50 μL of 2 N H2SO4 and the resulting solution was analyzed at 450 nm using a UV/Vis microtiter plate reader. The amount of product generated by the ppGalNAcT was extrapolated from absorbance values using an equation fit to the standard curve derived from Origin 6.1 software.
In order to screen the library in high-throughput format, a non-radioactive enzyme linked lectin assay (ELLA) for ppGalNAcTs was developed. As an acceptor substrate, the EA2 peptide (PTTDSTTPAPTTK; SEQ ID NO:12), a fragment of rat submandibular mucin, was chosen. Albone et al. (1994) J. Biol. Chem. 269:16845-16852. This peptide has been previously shown to be an efficient substrate for murine (m) ppGalNAcT-1 and is preferentially glycosylated at the fourth Thr residue from the N-terminus (underlined). Ten Hagen et al. (2001, supra). Biotinylation of EA2 allowed capture of (glyco)peptides onto 96-well NeutrAvidin-coated plates. The GalNAc-modified glycopeptide product could be detected using the α-GalNAc-specific lectin Helix pomatia agglutinin (HPA) (Hammarstrom et al. (1977) Biochemistry 16:2750-2755) conjugated to horseradish peroxidase (HRP). The bound HRP was quantified by addition of a chromogenic substrate.

Jurkat cells [1] = assay: HPA staining of Jurkat cells (Tn-antigen), flow cytometry; format: cell-based, human; settings: Jurkat cells, 2 d treatment
Protocol: (§1) Jurkat cells were seeded at 250,000 cells/well (determined by Coulter cell counter) in 12-well polystyrene tissue culture plates in 1.0 mL of media and treated with various concentrations of 1-68A or 2-68A from 50 mM dimethyl sulfoxide (DMSO) stock solutions or doxorubicin or campothecin from 1 mM DMSO stock solutions. After 2 d, cells were harvested, washed twice with PBS buffer (PBS, pH 7.4, 0.1% FCS, 0.1% NaN3 w/v) and stained with FITC-HPA (1 μg/mL) or FITC-Con A (5 μg/mL with 1 mM CaCl2) in PBS, pH 7.4 in the dark for 1 h at 4° C. Cells were washed twice with PBS buffer, resuspended in 300 μL of PBS buffer and analyzed by flow cytometry (FacsCaliber, BD Instruments). Annexin-V staining was performed according to the manufacturer's protocols (Invitrogen).
(§2) To directly monitor ppGalNAcT activities in cells, Jurkat cells (human T-cell lymphoma), which are known to produce only the Tn-antigen (FIG. 1) as their O-linked glycans, were chosen. Piller et al. (1990) J. Biol. Chem. 265:9264-9271. Changes in Tn-antigen expression on the surface of Jurkat cells were monitored by HPA binding followed by flow cytometry analysis. Con A staining of N-linked glycans was used as a control for non-specific inhibition of protein glycosylation. Baenziger and Fiete (1979) J. Biol. Chem. 254:2400-2407.

Jurkat cells [2] = assay: Con A staining of N-linked glycans on Jurkat cells, flow cytometry; format: cell-based, human; settings: 2 d treatment
Protocol: as §1, §2

Jurkat cells [3] = assay: Annexin-V staining of Jurkat cells (apoptosis); format: cell-based, human; settings: 2 d treatment
Protocol: as §1, §2

[4] = molecular target: C-terminal biotinylated EA2* glycopeptide 5 (…; SEQ ID NO:17) (rat); assay: enzyme-linked lectin assay (ELLA): 15% glycopeptide 5 (9 pmol) on NeutrAvidin plates, detected with HPA-HRP
[5] = molecular target: T2, C-terminal biotinylated EA2 peptide 4 (PTTKDSTTPAPTTKK; SEQ ID NO:16)
T2 chain: PTTKDSTTPAPTTKK

uridine diphosphate N-acetyl-α-galactosamine [UDP-GalNAc, reference compound]
Km (mppGalNAcT-1): 13.9 µM and 14 µM

O=c1ccn([C@@H]2O[C@H](COP(=O)(O)OP(=O)(O)O)[C@@H](O)[C@H]2O)c(=O)[nH]1 [UDP, reference compound]
Ki (mppGalNAcT-1; read-out: KI value for the product UDP): 251 µM and 250 µM

COc1cccc2c1C(=O)c1c(O)c3c(c(O)c1C2=O)C[C@@](O)(C(=O)CO)C[C@@H]3O[C@H]1C[C@H](N)[C@H](O)[C@H](C)O1 [doxorubicin, reference compound]
effect on HPA staining (Jurkat cells [1]): reduced
effect on Con A staining (Jurkat cells [2]): reduced
Annexin-V staining (induction of apoptosis) (Jurkat cells [3]): induced Annexin V binding at levels comparable to 1-68A

CC[C@@]1(O)C(=O)OCc2c1cc1n(c2=O)Cc2cc3ccccc3nc2-1 [campothecin, reference compound]
effect on HPA staining (Jurkat cells [1]): reduced
effect on Con A staining (Jurkat cells [2]): reduced
Annexin-V staining (induction of apoptosis) (Jurkat cells [3]): induced Annexin V binding at levels comparable to 1-68A

EA2 peptide 4: C-terminal biotinylated EA2 peptide (PTTKDSTTPAPTTKK; SEQ ID NO:16), fragment of rat submandibular mucin, acceptor substrate (PTTKDSTTPAPTTKK-biotin) [reference compound]
Km (mppGalNAcT-1): 48 ± 4 µM

Helix pomatia agglutinin (HPA) conjugated to horse radish peroxidase (HPA-HRP)
signal to noise ratio (fold above background) [4]: 30

B1: murine polypeptide N-acetyl-α-galactosaminyltransferase-1 (mppGalNAcT-1) (protein)
chain: GLPAGDVLELVQKPHEGPGEMGKPVVIPKEDQEKMKEMFKINQFNLMASEMIALNRSLPDVRLEGCKTKVYPDNLPTTSVVIVFHNEAWSTLLRTVHSVINRSPRHMIEEIVLVDDASERDFLKRPLESYVKKLKVPVHVIRMEQRSGLIRARLKGAAVSRGQVITFLDAHCECTAGWLEPLLARIKHDRRTVVCPIIDVISDDTFEYMAGSDMTYGGFNWKLNFRWYPVPQREMDRRKGDRTLPVRTPTMAGGLFSIDRDYFQEIGTYDAGMDIWGGENLEISFRIWQCGGTLEIVTCSHVGHVFRKATPYTFPGGTGQIINKNNRRLAEVWMDEFKNFFYIISPGVTKVDYGDISSRLGLRRKLQCKPFSWYLENIYPDSQIPRHYFSLGEIRNVETNQCLDNMARKENEKVGIFNCHGMGGNQVFSYTANKEIRTDDLCLDVSKLNGPVTMLKCHHLKGNQLWEYDPVKLTLQHVNSNQCLDKATEEDSQVPSIRDCTGSRSQQWLLRNVTLPEIF
KM (ELLA enzyme kinetics) [5]: 48.0 ± 4.0 µM
